{"source": "patent US20220298196A1", "about": "“NOVEL COMPOUND DERIVED FROM WATERMELON, AND COMPOSITION USING SAME” (HAGIHARA FARM PRODUCTION INSTITUTE CO., LTD., priority 2019, published 2022)", "key": {"[1]": {"assay": "DPPH radical scavenging rate (antioxidative effect)", "assay_type": "biochemical", "conditions": "200 μM DPPH, 30 minutes, absorbance at 520 nm; compared with L-ascorbic acid", "description": "In order to evaluate the antioxidation ability of the two novel compounds thus isolated, 200 μM DPPH (1,1-diphenyl-2-picrylhydrazyl) dissolved in 50% ethanol was prepared as a reagent. In the preparation procedure of the reagent, DPPH was first dissolved in ethanol, and an equal amount of Milli-Q water was then added to the mixture. Then, the resulting mixture was filtered with a 0.45 μm syringe filter to remove undissolved matters.\nA sample solution in a volume of 150 μL and the 200 μM DPPH ethanol solution in a volume of 150 μL were mixed well in a 96-well plate. After the plate was left standing still for 30 minutes, the absorbance at 520 nm was measured using a microplate reader (Thermo Fisher Scientific, Multiscan-LUX). The radical scavenging rate was obtained using the formula (F1).\nNote that in the formula, RD (%) represents the radical scavenging rate (%). ODblank520nm represents the absorbance at 520 nm of the reagent (DPPH) to which each of the sample solutions is not added, while ODsample520nm represents the absorbance at 520 nm of the reagent (DPPH) to which each of the sample solutions is added and mixed, followed by being left standing still for 30 minutes.\nFIG. 2 is a graph of the result with a photograph of a state of the microplate. […]"}, "MMP-1": {"tested_on": "MMP-1", "assay": "Inhibition of MMP-1 protein expression after UV-B irradiation, western blotting", "assay_type": "cell-based, human", "conditions": "NHDF cells, 50 or 100 μM, precultured 24 hours, UV-B 25 mJ/cm2, 24 hours after irradiation", "description": "Normal human dermal fibroblasts-Neo (NHDF, hereinafter, simply referred to as “NHDF cells”) were adjusted at 1×10^5 cells/mL and inoculated in a 12-well multi-well plate in a volume of 1 mL each and cultured to a confluent state. Subsequently, test samples (a final concentration of 50 or 100 μM (of each solvent-fractionated matter) (of each isolated substance)) were added to the cells and the cells were precultured for 24 hours. Subsequently, after rinsing with PBS twice, the cells were irradiated with UV-B with a light intensity of 25 mJ/cm^2.\nThe cells irradiated with ultraviolet rays were subjected to SDS-PAGE after 24 hours, and then western blotting was performed by transferring to PVDF (polyvinylidene difluoride), thereby detecting protein expression of MMP-1.\nReferring to FIG. 3(a), in two columns in an upper part of the photograph, an upper column indicates the presence/absence of UV irradiation (“+”: irradiated with UV, “−”: not irradiated) and a lower column indicates samples (no sample indicated by “−”, 4G3HBE, and 4GBE). Further, a left part of the photograph indicates detection targets (MMP-1 and β-Actin) along a vertical direction. β-Actin is measured as a control."}, "NF-κB": {"tested_on": "NF-κB", "assay": "Activation (phosphorylation) of signaling molecule after UV-B irradiation, western blotting", "assay_type": "cell-based, human", "conditions": "NHDF cells, precultured 24 hours, UV-B 25 mJ/cm2", "description": "(§1) Since activation of p38MAP kinase, SAPK/JNK, and NF-κB involving in an inflammatory response is deeply involved in the induction and production of MMPs after UV-B irradiation, activation (via phosphorylation) of these signaling molecules was studied by the western blotting method.\n(§2) More specifically, the NHDF cells were precultured for 24 hours in the same manner as described above, rinsed with PBS twice, irradiated with UV-B with a light intensity of 25 mJ/cm^2, and subjected to western blotting to examine phosphorylation of p38MAP, SAPK/JNK, and NF-κB.\n(§3) The data were shown by average±standard error (n=3). The comparison between multiple groups was performed by using the Tukey-Kramer test method (p<0.05).\n(§4) Referring to FIG. 4(b), the horizontal axis of the graph indicates conditions of the samples, that is, the presence/absence of UV-B irradiation (“+”: irradiated with UV, “−”: not irradiated), the presence/absence of 4G3HBE (“+”: presence, “−”: absence), and the presence/absence of 4GBE (“+”: presence, “−”: absence). Further, the vertical axis indicates changes in phosphorylation, that is, a relative ratio of phosphorylation activity. Referring to FIG. 4(b), p38MAP, SAPK/JNK, and phosphorylated NF-κB increased by UV-B irradiation. However, the expression of the signaling molecules was suppressed by the presence of 4G3HBE or 4GBE."}, "SAPK/JNK": {"tested_on": "SAPK/JNK", "assay": "Activation (phosphorylation) of signaling molecule after UV-B irradiation, western blotting", "assay_type": "cell-based, human", "conditions": "NHDF cells, precultured 24 hours, UV-B 25 mJ/cm2", "description": "as §1, §2, §3, §4"}, "p38MAP kinase": {"tested_on": "p38MAP kinase", "assay": "Activation (phosphorylation) of signaling molecule after UV-B irradiation, western blotting", "assay_type": "cell-based, human", "conditions": "NHDF cells, precultured 24 hours, UV-B 25 mJ/cm2", "description": "as §1, §2, §3, §4"}, "NHDF cells": {"tested_on": "NHDF cells", "assay": "Amount of intracellular reactive oxygen species (ROS), CM-H2DCFDA", "assay_type": "cell-based, human", "conditions": "50 μM, precultured 24 hours, UV-B 25 mJ/cm2, 1 hour, control 1%, UV-B alone about 1.7%", "excerpt": "In the studies of “Antioxidative effect”, it was confirmed that 4G3HBE and 4GBE had approximately half of the antioxidation activity of vitamin C. On the other hand, according to “Inhibition of MMP-1 expression” and “Activation of signaling molecules”, it was thought that attenuation of the oxidative stress signal was induced by removal of ROS, generated by UV-B irradiation, by the antioxidation ability of 4G3HBE and 4GBE. Thus, the amount of the intracellular reactive oxygen species (ROS) was measured using CM-H2DCFDA, an indicator of ROS.\nThe NHDF cells (1.0×10^5 cells/mL) were cultured to a confluent state. Subsequently, 4G3HBE and 4GBE were each added to the cells at a final concentration of 50 μM, followed by preculturing for 24 hours. CM-H2DCFDA serving as a cell-permeable indicator of reactive oxygen was added to the cells at a final concentration of 10 μM one hour before ultraviolet ray irradiation. Subsequently, the cells were irradiated with UV-B with a light intensity of 25 mJ/cm^2 and further cultured for 1 hour in an incubator. Then, fluorescence was measured with an excitation wavelength of 495 nm and a fluorescent wavelength of 530 nm using a multimode microplate reader, Varioscan LUX. […]"}}}
{"smiles": "CC(C)(O)C(OC(=O)/C=C/c1ccc(O)c(O)c1)C(=O)OCc1ccc(O[C@@H]2O[C@H](CO)[C@@H](O)[C@H](O)[C@H]2O)cc1", "note": "(stereo partly drawn) [4GBE, 2-caffeoyl-3-hydroxy-3-methylbutyric 4′-β-D-glucopyranosyloxybenzyl ester]", "values": [{"measurement": "antioxidative activity (radical scavenging rate) relative to vitamin C", "setting": "[1]", "value": "approximately half that of vitamin C"}, {"measurement": "expression of MMP-1 (protein, detection intensity)", "setting": "MMP-1", "value": "clearly suppressed the expression of MMP-1"}, {"measurement": "activation of NF-κB (phosphorylation)", "setting": "NF-κB", "value": "significantly down-regulated"}, {"measurement": "activation of SAPK/JNK (phosphorylation)", "setting": "SAPK/JNK", "value": "significantly down-regulated"}, {"measurement": "activation of p38MAP kinase (phosphorylation)", "setting": "p38MAP kinase", "value": "significantly down-regulated"}, {"measurement": "intracellular ROS level", "setting": "NHDF cells", "value": "about 1.4%"}]}
{"smiles": "CC(C)(O)C(OC(=O)/C=C/c1ccc(O)c(O)c1)C(=O)OCc1ccc(O[C@@H]2O[C@H](CO)[C@@H](O)[C@H](O)[C@H]2O)c(O)c1", "note": "(stereo partly drawn) [4G3HBE, 2-caffeoyl-3-hydroxy-3-methylbutyric 4′-β-D-glucopyranosyloxy-3′-hydroxybenzyl ester]", "values": [{"measurement": "antioxidative activity (radical scavenging rate) relative to vitamin C", "setting": "[1]", "value": "approximately half that of vitamin C"}, {"measurement": "expression of MMP-1 (protein, detection intensity)", "setting": "MMP-1", "value": "clearly suppressed the expression of MMP-1"}, {"measurement": "activation of NF-κB (phosphorylation)", "setting": "NF-κB", "value": "significantly down-regulated"}, {"measurement": "activation of SAPK/JNK (phosphorylation)", "setting": "SAPK/JNK", "value": "significantly down-regulated"}, {"measurement": "activation of p38MAP kinase (phosphorylation)", "setting": "p38MAP kinase", "value": "significantly down-regulated"}, {"measurement": "intracellular ROS level", "setting": "NHDF cells", "value": "about 1.4%"}]}
